Values belong to the molecule of their own block, whether it stands above or below them. Active and inactive are the calls of the source.
Experiments:
Cytochrome P450 2C9 [1] = molecular target: T1, Cytochrome P450 2C9 (Homo sapiens, UniProt P11712)
Cytochrome P450 2C9 [2] = molecular target: T1, Cytochrome P450 2C9; details: Potency
Cytochrome P450 3A4 [3] = molecular target: T2, Cytochrome P450 3A4 (Homo sapiens, UniProt P08684)
[4] = HEp-2 cell cytotoxicity, dose response, cytotoxicity control for RSV inhibitor project, HTS (AID 2410); format: functional; details: human respiratory syncytial virus
Aminopeptidase N = molecular target: T3, Aminopeptidase N (Plasmodium falciparum FcB1/Columbia, UniProt O96935); assay: P. falciparum M1AAP inhibitors, biochemical, fluorogenic H-Leu-NHMec substrate, 1536-well (AID 1445); design: species or system Plasmodium falciparum 3D7, 3D7
T3 sequence (O96935 whole entry): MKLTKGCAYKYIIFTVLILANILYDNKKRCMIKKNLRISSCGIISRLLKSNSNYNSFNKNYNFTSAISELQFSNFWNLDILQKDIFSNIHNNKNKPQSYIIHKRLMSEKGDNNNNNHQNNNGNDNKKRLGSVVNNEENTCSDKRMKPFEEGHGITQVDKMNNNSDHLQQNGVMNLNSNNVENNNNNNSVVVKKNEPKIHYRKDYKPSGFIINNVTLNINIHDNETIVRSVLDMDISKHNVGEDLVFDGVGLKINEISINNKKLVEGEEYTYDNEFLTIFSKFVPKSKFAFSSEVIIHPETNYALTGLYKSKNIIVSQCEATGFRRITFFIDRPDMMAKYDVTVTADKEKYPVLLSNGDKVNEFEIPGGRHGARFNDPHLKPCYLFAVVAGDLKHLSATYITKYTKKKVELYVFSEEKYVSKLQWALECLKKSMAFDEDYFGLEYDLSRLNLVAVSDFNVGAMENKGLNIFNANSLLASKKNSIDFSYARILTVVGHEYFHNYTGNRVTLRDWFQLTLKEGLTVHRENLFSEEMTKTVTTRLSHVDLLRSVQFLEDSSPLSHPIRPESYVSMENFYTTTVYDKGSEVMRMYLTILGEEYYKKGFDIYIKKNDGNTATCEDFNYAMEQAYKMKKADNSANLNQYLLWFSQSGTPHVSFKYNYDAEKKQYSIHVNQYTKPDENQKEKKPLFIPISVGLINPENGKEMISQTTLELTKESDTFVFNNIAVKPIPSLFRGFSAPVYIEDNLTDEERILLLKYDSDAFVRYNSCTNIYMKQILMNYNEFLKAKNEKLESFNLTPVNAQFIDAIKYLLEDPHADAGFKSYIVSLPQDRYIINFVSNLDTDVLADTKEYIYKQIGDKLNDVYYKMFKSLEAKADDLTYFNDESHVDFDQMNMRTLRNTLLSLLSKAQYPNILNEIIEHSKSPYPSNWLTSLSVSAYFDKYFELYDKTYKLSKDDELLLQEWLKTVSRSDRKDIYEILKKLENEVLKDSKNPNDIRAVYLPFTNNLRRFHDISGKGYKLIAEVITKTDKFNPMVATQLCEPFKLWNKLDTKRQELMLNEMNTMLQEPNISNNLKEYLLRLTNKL

[5] = molecular target: Peroxisome proliferator-activated receptor gamma/Nuclear receptor coactivator 3 (Homo sapiens, UniProt P37231); format: functional;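 note: agonist potency for raising coactivator recruitment to the receptor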
[6] = molecular target: Peroxisome proliferator-activated receptor gamma/Nuclear receptor coactivator 1 (Homo sapiens, UniProt P37231); format: functional;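 note: agonist potency as compounds enhance coactivator SRC-1 recruitment to PPARgamma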
[7] = molecular target: Peroxisome proliferator-activated receptor gamma/Nuclear receptor coactivator 2 (Homo sapiens, UniProt P37231); format: functional;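 note: agonist potency for raising coactivator recruitment to the receptor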
[8] = inhibitors of intracellular T. cruzi replication, confirmation, NIH3T3 host cells, beta-gal luminescence (AID 2044); format: functional, cell-based;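 note: intracellular parasites grown in NIH/3T3 mouse fibroblasts as host cells; luminescent beta-galactosidase reporter signal from transgenic T. cruzi replicating inside host cells; inhibitors lower the luminescence signal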
[9] = cytotoxicity toward NIH3T3 fibroblasts, dose response, counter-screen, cell-based, ATP luminescence, mouse fibroblasts (AID 2010); format: functional;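 note: cells exposed to compound for about 90 hours before reading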
Cytochrome P450 2D6 = Cytochrome P450 2D6 (Homo sapiens, UniProt P10635); assay: qHTS Assay for Inhibitors and Substrates of Cytochrome P450 2D6. [Related pubchem assays: 410 ]; format: ADME; details: read-out: Potency
Cytochrome P450 3A4 [10] = molecular target: T2, Cytochrome P450 3A4; details: Potency

T1 sequence (P11712 whole entry): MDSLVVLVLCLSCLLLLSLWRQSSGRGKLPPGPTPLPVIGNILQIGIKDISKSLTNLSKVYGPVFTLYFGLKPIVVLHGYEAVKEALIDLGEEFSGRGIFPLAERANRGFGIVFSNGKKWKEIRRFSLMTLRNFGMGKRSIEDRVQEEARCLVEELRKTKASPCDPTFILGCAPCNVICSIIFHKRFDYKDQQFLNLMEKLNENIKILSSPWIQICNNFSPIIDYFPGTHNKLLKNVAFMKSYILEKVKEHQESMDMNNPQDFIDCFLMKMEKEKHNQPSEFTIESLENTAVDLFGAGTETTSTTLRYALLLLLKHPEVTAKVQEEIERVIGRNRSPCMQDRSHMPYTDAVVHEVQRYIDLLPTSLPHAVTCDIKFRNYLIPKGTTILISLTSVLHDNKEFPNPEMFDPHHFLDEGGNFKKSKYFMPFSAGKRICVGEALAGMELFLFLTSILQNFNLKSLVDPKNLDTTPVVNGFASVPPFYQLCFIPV
Chain of Peroxisome proliferator-activated receptor gamma/Nuclear receptor coactivator 1 (P37231 whole entry): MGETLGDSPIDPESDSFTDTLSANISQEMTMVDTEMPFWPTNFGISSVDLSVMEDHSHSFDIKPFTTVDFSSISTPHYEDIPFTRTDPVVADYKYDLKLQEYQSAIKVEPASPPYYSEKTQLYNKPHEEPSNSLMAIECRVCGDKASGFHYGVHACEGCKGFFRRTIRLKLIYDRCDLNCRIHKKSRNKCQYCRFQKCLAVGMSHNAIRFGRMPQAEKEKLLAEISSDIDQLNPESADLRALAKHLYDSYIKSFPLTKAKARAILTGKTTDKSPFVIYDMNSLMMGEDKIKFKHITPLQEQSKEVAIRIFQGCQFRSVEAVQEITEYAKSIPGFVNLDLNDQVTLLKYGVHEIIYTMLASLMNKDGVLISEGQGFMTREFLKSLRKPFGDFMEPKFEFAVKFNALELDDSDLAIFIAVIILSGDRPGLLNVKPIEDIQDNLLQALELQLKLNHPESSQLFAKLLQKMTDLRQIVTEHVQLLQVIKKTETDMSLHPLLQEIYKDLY
Chain of Peroxisome proliferator-activated receptor gamma/Nuclear receptor coactivator 1 (Q15788 whole entry, further chain): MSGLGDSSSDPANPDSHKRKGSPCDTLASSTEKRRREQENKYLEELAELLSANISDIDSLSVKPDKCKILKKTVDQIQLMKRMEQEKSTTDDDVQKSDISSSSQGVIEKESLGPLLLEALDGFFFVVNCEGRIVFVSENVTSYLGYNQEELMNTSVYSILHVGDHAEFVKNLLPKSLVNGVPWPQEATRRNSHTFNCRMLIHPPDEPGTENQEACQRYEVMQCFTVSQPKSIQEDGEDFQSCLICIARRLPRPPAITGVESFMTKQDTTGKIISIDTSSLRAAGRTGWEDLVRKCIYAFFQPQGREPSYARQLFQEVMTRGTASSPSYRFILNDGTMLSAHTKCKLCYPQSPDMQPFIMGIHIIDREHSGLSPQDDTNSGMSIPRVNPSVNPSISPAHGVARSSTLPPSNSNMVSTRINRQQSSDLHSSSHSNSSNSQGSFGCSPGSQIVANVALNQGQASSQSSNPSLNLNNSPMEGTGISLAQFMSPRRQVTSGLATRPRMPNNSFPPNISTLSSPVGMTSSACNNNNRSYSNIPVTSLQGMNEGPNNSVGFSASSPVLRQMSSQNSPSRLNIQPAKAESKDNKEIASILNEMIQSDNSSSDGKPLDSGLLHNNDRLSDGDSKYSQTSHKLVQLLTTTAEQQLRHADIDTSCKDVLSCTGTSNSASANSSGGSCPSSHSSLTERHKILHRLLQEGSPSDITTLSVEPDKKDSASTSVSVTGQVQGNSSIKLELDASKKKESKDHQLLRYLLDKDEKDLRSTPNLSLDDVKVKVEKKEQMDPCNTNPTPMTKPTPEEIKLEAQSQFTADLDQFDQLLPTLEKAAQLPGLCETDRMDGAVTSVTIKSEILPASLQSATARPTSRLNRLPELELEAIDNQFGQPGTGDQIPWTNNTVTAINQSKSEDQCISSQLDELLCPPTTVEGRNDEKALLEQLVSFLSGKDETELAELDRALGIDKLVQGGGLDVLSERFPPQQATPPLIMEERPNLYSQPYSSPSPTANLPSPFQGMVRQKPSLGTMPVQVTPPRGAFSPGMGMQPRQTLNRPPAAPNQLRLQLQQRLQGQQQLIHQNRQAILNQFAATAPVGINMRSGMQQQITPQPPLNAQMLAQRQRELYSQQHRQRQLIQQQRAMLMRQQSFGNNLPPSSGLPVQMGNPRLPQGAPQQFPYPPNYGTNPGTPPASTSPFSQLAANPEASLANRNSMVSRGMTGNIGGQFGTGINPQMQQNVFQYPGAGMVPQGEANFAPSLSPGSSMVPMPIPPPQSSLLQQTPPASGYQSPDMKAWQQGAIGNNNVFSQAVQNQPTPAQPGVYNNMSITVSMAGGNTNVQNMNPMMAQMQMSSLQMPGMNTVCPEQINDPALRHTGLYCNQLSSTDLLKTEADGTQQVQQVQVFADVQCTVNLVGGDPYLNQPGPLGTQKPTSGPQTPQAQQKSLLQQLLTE
Chain of Peroxisome proliferator-activated receptor gamma/Nuclear receptor coactivator 3 (P37231 whole entry): as the sequence (P37231 whole entry) above
Chain of Peroxisome proliferator-activated receptor gamma/Nuclear receptor coactivator 3 (Q9Y6Q9 whole entry, further chain): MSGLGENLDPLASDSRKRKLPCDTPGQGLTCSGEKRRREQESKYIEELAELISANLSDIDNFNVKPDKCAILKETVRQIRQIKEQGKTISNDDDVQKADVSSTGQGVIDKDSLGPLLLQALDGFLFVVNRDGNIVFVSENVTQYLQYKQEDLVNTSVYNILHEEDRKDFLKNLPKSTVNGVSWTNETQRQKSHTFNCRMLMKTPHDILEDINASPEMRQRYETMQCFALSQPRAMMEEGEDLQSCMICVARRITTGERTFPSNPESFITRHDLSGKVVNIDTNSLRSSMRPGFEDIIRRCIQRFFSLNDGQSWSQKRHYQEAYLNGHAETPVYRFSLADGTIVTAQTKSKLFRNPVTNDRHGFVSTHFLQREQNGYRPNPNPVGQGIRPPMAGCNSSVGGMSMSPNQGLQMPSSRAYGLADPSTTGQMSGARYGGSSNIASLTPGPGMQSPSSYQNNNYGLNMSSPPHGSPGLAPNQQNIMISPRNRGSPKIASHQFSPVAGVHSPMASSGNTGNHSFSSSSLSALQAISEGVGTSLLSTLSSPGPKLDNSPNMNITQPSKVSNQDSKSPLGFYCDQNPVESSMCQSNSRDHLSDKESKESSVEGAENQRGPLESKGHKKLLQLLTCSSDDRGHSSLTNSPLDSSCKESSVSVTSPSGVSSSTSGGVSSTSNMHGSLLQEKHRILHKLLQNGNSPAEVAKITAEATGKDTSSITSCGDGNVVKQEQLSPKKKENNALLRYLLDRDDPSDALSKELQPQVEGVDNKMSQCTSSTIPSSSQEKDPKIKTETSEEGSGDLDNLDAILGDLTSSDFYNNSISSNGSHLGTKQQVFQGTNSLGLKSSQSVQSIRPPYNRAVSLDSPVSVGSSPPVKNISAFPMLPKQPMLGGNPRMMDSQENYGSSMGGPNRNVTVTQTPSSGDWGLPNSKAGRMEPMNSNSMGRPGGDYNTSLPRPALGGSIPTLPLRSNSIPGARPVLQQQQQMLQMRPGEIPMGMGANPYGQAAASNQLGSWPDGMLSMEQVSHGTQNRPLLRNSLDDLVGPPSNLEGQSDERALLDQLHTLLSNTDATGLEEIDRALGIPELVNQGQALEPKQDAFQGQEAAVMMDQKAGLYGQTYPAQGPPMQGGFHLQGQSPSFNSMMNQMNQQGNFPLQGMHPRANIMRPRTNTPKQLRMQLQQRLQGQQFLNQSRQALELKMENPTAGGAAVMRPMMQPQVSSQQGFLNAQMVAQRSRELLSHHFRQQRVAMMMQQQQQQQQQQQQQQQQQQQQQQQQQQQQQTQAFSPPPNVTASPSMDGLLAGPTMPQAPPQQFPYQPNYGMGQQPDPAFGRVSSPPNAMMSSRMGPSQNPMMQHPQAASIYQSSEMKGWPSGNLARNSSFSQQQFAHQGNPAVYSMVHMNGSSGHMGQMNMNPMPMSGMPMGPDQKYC
Chain of Cytochrome P450 2D6 (P10635 whole entry): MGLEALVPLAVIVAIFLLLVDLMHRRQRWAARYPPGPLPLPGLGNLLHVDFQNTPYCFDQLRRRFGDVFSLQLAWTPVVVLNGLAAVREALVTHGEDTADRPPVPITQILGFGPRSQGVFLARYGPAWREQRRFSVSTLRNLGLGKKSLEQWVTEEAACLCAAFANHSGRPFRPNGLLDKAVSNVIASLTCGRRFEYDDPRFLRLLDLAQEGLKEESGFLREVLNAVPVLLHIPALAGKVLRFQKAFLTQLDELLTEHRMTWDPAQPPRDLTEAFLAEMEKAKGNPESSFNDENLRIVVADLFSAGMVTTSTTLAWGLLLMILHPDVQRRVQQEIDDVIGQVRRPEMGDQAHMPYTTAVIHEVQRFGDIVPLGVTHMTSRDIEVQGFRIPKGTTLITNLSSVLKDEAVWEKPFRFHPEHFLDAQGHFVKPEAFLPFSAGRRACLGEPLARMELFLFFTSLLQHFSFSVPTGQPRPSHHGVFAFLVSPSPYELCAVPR

AC50 (Cytochrome P450 2C9 [1]): 31.6 µM (inconclusive)
AC50 (Cytochrome P450 2C9 [2]): 15.8 µM (inconclusive)
AC50 (Cytochrome P450 3A4 [3]): 20 µM (inconclusive)
Compound: CC[C@H](C)N(C)C(=O)c1cc2ccccc2c(-c2ccccc2Cl)n1

AC50 (Cytochrome P450 2C9 [2]): 3.16 µM (inconclusive)
AC50 (Cytochrome P450 2D6): 7.94 µM (inconclusive)
Compound: COc1ccc(/C=C/N(CCc2ccc(OC)c(OC)c2)C(=O)C(F)(F)F)cc1

AC50 (Cytochrome P450 3A4 [10]): 1.58 µM (inconclusive)
AC50 (Cytochrome P450 2D6): 12.6 µM (inconclusive)
Compound: CN(C)C(=O)c1ccc(-c2nc(N(C)C)c3ccccc3n2)cc1

Further lines, the molecule ahead of its results:

Compound: Cn1c(SCc2cccc3ccccc23)nnc1-c1ccco1
CC50 [4]: > 50 µM (active)
IC50 (cells): 46.5 µM (active)

Compound: C/C=C/c1ccc(OCCOc2cc(C=O)ccc2OC)c(OC)c1
IC50 (Aminopeptidase N): 88.9 µM (active)

Compound: COc1ccc(C(CN=C(S)NCc2ccccc2)N2CCCC2)cc1 (centres undefined)
IC50 (cells): 24.2 µM (active)

Compound: c1ccc(-c2oc3ncnc(NCCCN4CCOCC4)c3c2-c2ccccc2)cc1
EC50 [5]: > 79.4 µM (not active)
EC50 [6]: > 79.4 µM (not active)
EC50 [7]: > 79.4 µM (not active)

Compound: COc1ccc(N2C(=O)/C(=C\NNS(=O)(=O)c3cccc([N+](=O)[O-])c3)c3ccccc3C2=O)cc1OC
EC50 [8]: 18.2 µM (active)
EC50 [5]: > 79.4 µM (not active)
EC50 [6]: > 79.4 µM (not active)
EC50 [9]: > 60 µM (not active)
EC50 [7]: > 79.4 µM (not active)
